The target in data set [1] is T1, rat GABAA receptors α3β2γ2 (Rattus norvegicus, UniProt P18508+P20236).
T1 construct: expressed in transfected cells; host or cells: Xenopus laevis oocytes, cRNA microinjected
Briefly: Stimulation of GABA (EC3-5)-elicited currents in Xenopus oocytes, two-electrode voltage clamp, α3β2γ2. Format: cell-based. An excerpt: (§1) 7-Chloro-3-(5-dimethylaminomethyl-[1,2,4]oxadiazol-3-yl)-5methyl-4,5-dihydro-imidazol[1,5,-a][1,4]benzodiazepine-6-one was used to test the effects of the compound of formula (II): […]
(§2) Similar procedures were chosen as for the investigation of other GABAA receptor subunit specific substances (e.g., Baur et al., 2005; Mol. Pharmacol. 68, 787-792).
(§3) Lobes of the ovary containing the follicles were obtained by surgical procedures from female Xenopus laevis. Follicles were singled out using a platinum loop. Fifty nL of cRNA solution at a ratio of αx:β2:γ2 of 1:1:5 (3.3-10 nM αx (x=1,2,3,5); 3.3-10 nM β2; 16.7-50 nM γ2) (Boileau et al., 2002; Neuropharmacology 43, 695-700) were microinjected into Xenopus follicles. Several hours after microinjection the follicles were freed of follicular layers and adhering connective tissue by a collagenase/hypertonic shock procedure (Sigel, 1987; J. Physiol.(Land) 386, 73-90). Oocytes were kept at constant 18° C. until measurement (1-4 days) in a modified Barth solution (88 mM NaCl, 1 mM KCl, 2.4 mM NaHCO3, 10 mM Hepes-NaOH (pH 7.5), 0.82 mM MgSO4×7H2O, 0.34 mM Ca(NO3)2×4H2O, 0.41 mM CaCl2×2H2O, 100 U Penicillin/mL, 100 μg Streptomycin/mL, sterile filtered).
(§4) Currents were measured using a home-built amplifier in combination with a xy-recorder or were digitized using a MacLab/200 (AD Instruments) and stored on a computer. Xenopus oocytes were voltage clamped using the two-electrode voltage clamp technique (electrode resistance about 0.8 MΩ) at −80 mV. The medium contained 90 mM NaCl, 1 mM KCl, 1 mM MgCl2, 1 mM CaCl2, 10 mM Na-Hepes (pH 7.4) and 0.5% DMSO.
(§5) GABA was applied for 20-50 seconds without or in combination with other drugs and a washout period of 4 minutes was allowed to ensure full recovery from desensitization, which was experimentally determined. The perfusion solution (6 mL/min) was applied through a glass capillary with an inner diameter of 1.35 mm, the mouth of which was placed about 0.4 mm from the surface of the oocyte. The rate of solution change under our conditions has been estimated 70% within less than 0.5 s (Sigel et al., 1990; Neuron 5, 703-711). The entire perfusion system and the assay chamber were cleaned between drug applications by washing with DMSO.
(§6) Data is given as mean±SD, except in the figures where data is shown for clarity as mean±SEM. Current stimulation was calculated as follows: stimulation (%)=((I(GABA+modulator)−I(GABA))/I(GABA))×100%, where I is the current amplitude. Where indicated, the stimulation was standardized to the stimulation by 1 μM diazepam (100%). To obtain FIGS. 1-4, values for current stimulation obtained at a given concentration of modulator at a given subunit combination were averaged. The data points were fitted with the equation stimulation=efficacy/(1+(potency/concentration of modulator)). The values given in the Tables (Summary) are obtained by fitting individual curves and subsequently averaging efficacy and potency.
(§7) Concentration response curves were also performed with oocytes expressing α2β2γ2, α3β2γ2, or α5β2γ2, after establishing the optimal concentration range as indicated above. […] Averaged data of the individual curves summarizing the effects of the compound of formula (II) are shown below for unstandardized and standardized stimulation.
(§8) Concentration response curves were also performed with oocytes expressing α2β2γ2, α3β2γ2, or α5β2γ2.
(§9) Current stimulation by diazepam was determined in each batch of oocytes as follows. GABA (EC3-5) was applied until a stable response was obtained. Subsequently, GABA was applied in combination with 1 μM diazepam.
A general note: In two-electrode clamp one electrode senses voltage and the other passes current.

Data set [2] in a line: Example 2: single and repeat dose pharmacokinetic, safety and pharmacodynamic study in healthy volunteers. Type of data set: in vivo. The settings on record: human. As to the method:
A single and repeat dose pharmacokinetic safety and pharmacodynamic study of the effects of the compound of formula (II) was conducted using healthy volunteers. The compound of formula (II) was administered orally in 1 mg, 1.5 mg, 2 mg and 2.5 mg doses via a hard gelatine capsule containing the compound in powder form.

Data set [3] has as its target T2, rat GABAA receptors α5β2γ2 (Rattus norvegicus, UniProt P18508+P19969).
T2 construct: expressed in transfected cells; host or cells: Xenopus laevis oocytes, cRNA microinjected
Briefly: Stimulation of GABA (EC3-5)-elicited currents in Xenopus oocytes, two-electrode voltage clamp, α5β2γ2. Type of data set: cell-based.
Text: as §1, §2, §3, §4, §5, §6, §7, §8, §9

Data set [4] deals with T3, rat GABAA receptors α2β2γ2 (Rattus norvegicus, UniProt P18508+P23576).
T3 construct: expressed in transfected cells; host or cells: Xenopus laevis oocytes, cRNA microinjected
Briefly: Stimulation of GABA (EC3-5)-elicited currents in Xenopus oocytes, two-electrode voltage clamp, α2β2γ2. Format: cell-based.
Text: as §1, §2, §3, §4, §5, §6, §7, §8, §9

The mark [5] stands for this setting: GABA EC3-5, mean±SD of individually fitted curves, read-out: Potency.
[6] abbreviates: standardized to stimulation by 1 μM diazepam (100%).
Setting [7] is: unstandardized current stimulation.

The structures appear in SMILES notation.

Usually half-life stands for how long it takes for the measured level to halve. A high value points to slow loss.

T2 sequence (P19969 32-464 limits assumed): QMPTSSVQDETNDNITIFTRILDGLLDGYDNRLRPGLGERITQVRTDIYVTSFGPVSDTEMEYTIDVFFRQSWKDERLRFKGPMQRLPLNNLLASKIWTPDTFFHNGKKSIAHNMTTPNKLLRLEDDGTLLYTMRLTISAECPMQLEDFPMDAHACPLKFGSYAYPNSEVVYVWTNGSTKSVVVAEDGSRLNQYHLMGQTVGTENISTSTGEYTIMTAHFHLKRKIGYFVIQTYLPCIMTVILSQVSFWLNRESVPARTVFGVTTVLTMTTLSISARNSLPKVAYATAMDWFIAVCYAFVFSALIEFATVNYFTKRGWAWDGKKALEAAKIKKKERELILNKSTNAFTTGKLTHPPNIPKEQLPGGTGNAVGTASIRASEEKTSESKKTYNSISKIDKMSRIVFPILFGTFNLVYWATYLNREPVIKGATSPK
T2 sequence (P63138 25-474 partner limits assumed): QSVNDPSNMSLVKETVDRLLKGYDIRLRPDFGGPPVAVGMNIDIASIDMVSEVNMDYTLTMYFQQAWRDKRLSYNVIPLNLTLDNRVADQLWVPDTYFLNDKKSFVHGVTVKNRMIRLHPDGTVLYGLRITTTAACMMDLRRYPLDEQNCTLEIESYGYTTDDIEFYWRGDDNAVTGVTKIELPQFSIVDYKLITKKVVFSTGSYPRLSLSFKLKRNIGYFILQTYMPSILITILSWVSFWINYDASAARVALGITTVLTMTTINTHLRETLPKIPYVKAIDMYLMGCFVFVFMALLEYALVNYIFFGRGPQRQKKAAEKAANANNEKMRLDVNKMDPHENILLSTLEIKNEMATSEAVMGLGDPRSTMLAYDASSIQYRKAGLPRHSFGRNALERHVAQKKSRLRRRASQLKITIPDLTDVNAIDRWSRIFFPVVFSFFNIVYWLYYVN
T2 sequence (P18508 39-466): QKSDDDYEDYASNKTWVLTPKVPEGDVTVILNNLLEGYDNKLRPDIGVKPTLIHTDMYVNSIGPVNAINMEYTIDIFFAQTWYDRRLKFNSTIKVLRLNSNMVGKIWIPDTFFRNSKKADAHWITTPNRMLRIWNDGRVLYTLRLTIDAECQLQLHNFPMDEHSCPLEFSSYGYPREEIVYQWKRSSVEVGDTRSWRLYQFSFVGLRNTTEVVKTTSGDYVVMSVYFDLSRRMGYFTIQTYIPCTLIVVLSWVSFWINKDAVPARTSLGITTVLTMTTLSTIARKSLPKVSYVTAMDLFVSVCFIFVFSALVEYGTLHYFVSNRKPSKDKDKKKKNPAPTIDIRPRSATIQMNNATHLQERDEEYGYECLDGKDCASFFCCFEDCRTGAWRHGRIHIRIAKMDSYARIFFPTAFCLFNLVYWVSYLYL
T3 sequence (P23576 29-451): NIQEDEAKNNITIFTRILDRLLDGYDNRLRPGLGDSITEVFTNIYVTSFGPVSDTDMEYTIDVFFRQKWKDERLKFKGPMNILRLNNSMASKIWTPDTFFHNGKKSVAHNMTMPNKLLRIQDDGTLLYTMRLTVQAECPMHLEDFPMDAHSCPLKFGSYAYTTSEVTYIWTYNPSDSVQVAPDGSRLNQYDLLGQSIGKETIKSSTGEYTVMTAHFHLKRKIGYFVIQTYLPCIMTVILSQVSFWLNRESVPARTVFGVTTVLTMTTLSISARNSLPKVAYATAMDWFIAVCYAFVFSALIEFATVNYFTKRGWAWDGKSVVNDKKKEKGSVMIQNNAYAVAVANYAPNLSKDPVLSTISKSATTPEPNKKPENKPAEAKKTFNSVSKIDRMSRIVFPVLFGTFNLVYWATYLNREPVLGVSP
T3 sequence (P63138 25-474 partner limits assumed): as the sequence (P63138 25-474 partner limits assumed) above
T3 sequence (P18508 39-466): as the sequence (P18508 39-466) above
T1 sequence (P20236 29-493): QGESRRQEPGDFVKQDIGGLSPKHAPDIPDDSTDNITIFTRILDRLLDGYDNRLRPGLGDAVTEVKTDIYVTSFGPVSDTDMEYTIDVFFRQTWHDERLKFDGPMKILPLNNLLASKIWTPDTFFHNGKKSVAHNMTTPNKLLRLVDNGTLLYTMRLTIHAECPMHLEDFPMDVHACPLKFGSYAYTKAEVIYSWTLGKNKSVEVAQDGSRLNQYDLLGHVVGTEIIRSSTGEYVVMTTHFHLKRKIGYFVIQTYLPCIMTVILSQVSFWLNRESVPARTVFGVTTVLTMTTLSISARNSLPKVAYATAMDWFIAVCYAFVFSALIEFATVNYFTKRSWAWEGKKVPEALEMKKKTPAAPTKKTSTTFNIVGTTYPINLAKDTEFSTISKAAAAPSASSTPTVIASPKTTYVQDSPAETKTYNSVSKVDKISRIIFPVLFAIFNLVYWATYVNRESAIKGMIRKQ
T1 sequence (P63138 25-474 partner limits assumed): as the sequence (P63138 25-474 partner limits assumed) above
T1 sequence (P18508 39-466): as the sequence (P18508 39-466) above

In the case of `CN(C)Cc1nc(-c2ncn3c2CN(C)C(=O)c2c(Cl)cccc2-3)no1` [compound of formula (II), 7-chloro-3-(5-dimethylaminomethyl-[1,2,4]oxadiazol-3-yl)-5-methyl-4,5-dihydro-imidazo[1,5-a][1,4]benzodiazepine-6-one], the EC50 amounted to 0.084 ± 0.015 µM in data set [1] (setting [5]), 0.053 ± 0.006 µM in data set [3] (setting [5]) and 0.062 ± 0.021 µM in data set [4] (setting [5]). For the same molecule, the “Standardized Efficacy” value in data set [1] (setting [6]) is given as 41 ± 8% (n = 5); in data set [3] (setting [6]) it was 69 ± 23% (n = 5); in data set [4] (setting [6]), 31 ± 6% (n = 5). In addition, the values for the Efficacy in data set [1] (setting [7]), in data set [3] (setting [7]) and in data set [4] (setting [7]) were 171 ± 33% (n = 5), 135 ± 16% (n = 5) and 90 ± 16% (n = 5), respectively. The half-life in data set [2] (in vivo, po) was in the range of 3 to 4 h. Also, in data set [2] (oral), the “effect of food on the extent of absorption” value is listed as “little or no effect”. In addition, the “pharmacokinetic profile on day 14 after repeat dosing compared to day 1” value in data set [2] (oral repeat dosing) is “no significant differences”.

These data come from US20090054412A1, “Treatment of Sleep Disorders” (priority 2007, published 2009).
